Test results from patent US20260234107A1, “TRYPTAMINES AND METHODS OF TREATING MOOD DISORDERS” (priority 2022, published 2026).

Experiments:
[1] = biological target: T1, 5-HT2A (Homo sapiens, UniProt P28223); assay: FLIPR Ca2+ flux agonist assay at 5-HT2A; format: cell-based; set-up: host or cells: HEK293; details: for 5-HT2A % Act @ Max Dose: Ca2+ flux, HEK293, max dose
[2] = test system: rat synaptosomes; assay: Serotonin (5-HT) release from rat synaptosomes; format: biochemical, Male Sprague-Dawley rats; details: for EC50: rat synaptosomes preloaded with [3H]5-HT; for % Release @ Max Dose (10 μM) / 5-HT release potency/efficacy compared with analog (in words): rat synaptosomes
How it was run: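 Synaptosomes from male Sprague-Dawley rat brain (minus cerebellum, striatum) preloaded 2 h at 25° C with 5 nM [^3H]5-HT, with GBR12935, nomifensine and reserpine blocking DAT, NET and VMAT2. Exposed 10 min to compound in KPB with BSA, then filtered; release taken as loss of retained radioactivity.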

[3] = Plasma pharmacokinetics in mice after subcutaneous administration; format: in vivo, male C57BL/6 mice; details: plasma, male C57BL/6 mice, SC 10 mg/kg
From the text: Animals. […] Four mice were housed in each cage. […] All animals were provided laboratory rodent diet. […] Animals were randomly assigned to treatment groups.

[4] = biological target: T1, 5-HT2A; assay: 5-HT2A receptor radioligand binding ([3H]ketanserin)
Description: The binding affinities of disclosed compounds at the ketanserin binding site of the 5-HT2A receptor were determined in radioligand binding experiments.
Method. Affinity of the test compounds for the 5-HT2A receptor was determined in radioligand binding experiments with [^3H]ketanserin by WuXi AppTec (Hong Kong) Limited, using methods adapted from the literature and under conditions described in Table 4.

T1 sequence (P28223 whole entry): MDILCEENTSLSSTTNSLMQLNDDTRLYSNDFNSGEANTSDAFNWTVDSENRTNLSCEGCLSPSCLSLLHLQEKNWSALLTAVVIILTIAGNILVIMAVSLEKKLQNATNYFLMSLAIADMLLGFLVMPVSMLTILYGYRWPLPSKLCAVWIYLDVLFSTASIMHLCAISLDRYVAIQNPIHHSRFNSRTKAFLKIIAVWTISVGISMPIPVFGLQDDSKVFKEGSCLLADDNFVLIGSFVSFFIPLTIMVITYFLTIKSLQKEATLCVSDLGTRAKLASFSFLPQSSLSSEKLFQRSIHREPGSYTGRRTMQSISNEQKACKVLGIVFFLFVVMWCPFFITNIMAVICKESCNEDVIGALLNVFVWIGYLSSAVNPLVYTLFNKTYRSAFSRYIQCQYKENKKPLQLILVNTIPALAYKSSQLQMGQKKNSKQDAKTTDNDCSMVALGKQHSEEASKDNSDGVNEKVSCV

Structure (SMILES) | EC50 [1] [nM] | 5-HT2A % Act @ Max Dose [1] [%] | EC50 [2] [nM] | % Release @ Max Dose (10 μM) [2] [%] | AUC(0-t) ([3]; mouse) [ng·h/mL] | Cmax ([3]; mouse) [ng/mL] | Tmax [3] [min] | t1/2 [3] [min] | Ki [4] [nM] | 5-HT release potency/efficacy compared with analog (in words) [2]
CN(C)CCc1c[nH]c2ccc(F)cc12 [Compound 5-F-DMT, reference compound] | 6.94 | 94.7 | 40.7 | 81.44 | 247 | 363 | 15 | 16.2 | 181 | –
CCNCCc1c[nH]c2ccc(F)c(O)c12 [Compound 28, 3-(2-(ethylamino)ethyl)-5-fluoro-1H-indol-4-ol] | 10.5 | 92.60 | 708 | 73.6 | – | – | – | – | 319 | significantly more potent and efficacious than their non-fluorinated analogs
CC(C)NCCc1c[nH]c2ccc(F)c(O)c12 [Compound 35, 5-fluoro-3-(2-(isopropylamino)ethyl)-1H-indol-4-ol] | 45.7 | 94.57 | 6940 | 53.2 | – | – | – | – | 446 | significantly more potent and efficacious than their non-fluorinated analogs
